The text below walks through data of patent publication US5047397A, “Linear analogs of atrial natriuretic peptides” (California Biotechnology Inc., priority 1988, dated 1991).

Where a SMILES comes first, the peptide text is derived from it. Bridges are numbered along the chain shown (N, C = ends). [ ]: non-standard residue; d: D form. The star is where a group is joined. Propanoyl(3-indol-3-yl) = O=C(CCc1c[nH]c2ccccc12)*; Acetyl(1-adamantyl) = O=C(CC12CC3CC(CC(C3)C1)C2)*; Acetyl(2-naphthyloxy) = O=C(COc1ccc2ccccc2c1)*; Acetyl(2-naphthyl) = O=C(Cc1ccc2ccccc2c1)*; Fmoc = O=C(OCC1c2ccccc2-c2ccccc21)*; Hydrocinnamoyl = O=C(CCc1ccccc1)*; Ava = NCCCCC(=O)O

One assay concerns the target T1, specific ANP receptor sites on BASM or BAE cells (Bos taurus, UniProt P10730).
T1 construct: specific receptor sites on BASM or BAE cells; endogenous in cells; host or cells: cultured BASM and BAE cells
T1 sequence (P10730 42-537): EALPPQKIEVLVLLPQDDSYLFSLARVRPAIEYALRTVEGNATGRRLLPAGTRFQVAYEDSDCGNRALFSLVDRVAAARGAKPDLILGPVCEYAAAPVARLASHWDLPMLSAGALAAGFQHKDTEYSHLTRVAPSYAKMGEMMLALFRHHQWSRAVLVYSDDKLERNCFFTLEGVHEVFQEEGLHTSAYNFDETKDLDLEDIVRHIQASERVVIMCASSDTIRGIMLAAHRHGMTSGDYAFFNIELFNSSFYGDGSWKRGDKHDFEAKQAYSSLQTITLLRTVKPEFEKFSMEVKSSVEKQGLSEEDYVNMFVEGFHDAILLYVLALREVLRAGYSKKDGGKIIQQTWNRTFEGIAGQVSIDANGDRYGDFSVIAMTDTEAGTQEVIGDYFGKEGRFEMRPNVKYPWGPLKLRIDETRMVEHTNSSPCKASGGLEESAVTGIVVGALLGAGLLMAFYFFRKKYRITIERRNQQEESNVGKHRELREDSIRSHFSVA
Kind of assay: Competitive displacement receptor binding of (125I)-rANP(126-150) on cultured cells. Also noted: species or system bovine. To be noted: Table 2A; unit not given; in nM. The text has this: Analogous "competitive displacement" receptor binding assays are considered commonplace in the art for examining specific ligand-receptor interactions.
Assuming these ANP analogs act at one or more ANP receptor sites, then increased receptor affinity should reflect increased biological potency.
As for `CC[C@H](C)[C@@H]1NC(=O)[C@H](CCCNC(=N)N)NC(=O)[C@H](CC(=O)O)NC(=O)[C@H]([C@@H](C)CC)NC(=O)[C@H](CCCNC(=N)N)NC(=O)CNC(=O)CNC(=O)[C@H](Cc2ccccc2)NC(=O)[C@@H](NC(=O)[C@H](CO)NC(=O)[C@H](CO)NC(=O)[C@@H](N)CCCNC(=N)N)CSSC[C@@H](C(=O)N[C@@H](CC(N)=O)C(=O)N[C@@H](CO)C(=O)N[C@@H](Cc2ccccc2)C(=O)N[C@@H](CCCNC(=N)N)C(=O)N[C@@H](Cc2ccc(O)cc2)C(=O)O)NC(=O)CNC1=O` [AP21] (H-RSSCFGGRIDRIGCNSFRY-OH; disulfide 4-14), the Ki was determined as 15.15.

The same assay, now with this note: concentration of unlabeled peptide displacing 50% of maximal binding of 0.5 nM (125I)-rANP(126-150); BASM or BAE cells.
On to `CC[C@H](C)[C@@H]1NC(=O)[C@H](CCCNC(=N)N)NC(=O)[C@H](CC(=O)O)NC(=O)[C@H]([C@@H](C)CC)NC(=O)[C@H](CCCNC(=N)N)NC(=O)CNC(=O)CNC(=O)[C@@H](NC(=O)[C@H](CO)NC(=O)[C@H](CO)NC(=O)[C@@H](N)CCCNC(=N)N)CSSC[C@@H](C(=O)N[C@@H](CC(N)=O)C(=O)N[C@@H](CO)C(=O)N[C@@H](Cc2ccccc2)C(=O)N[C@@H](CCCNC(=N)N)C(=O)N[C@@H](Cc2ccc(O)cc2)C(=O)O)NC(=O)CNC(=O)[C@H](CC(C)C)NC(=O)CNC(=O)[C@H](CO)NC(=O)[C@H](CCC(N)=O)NC(=O)[C@H](C)NC(=O)CNC1=O` [AP23, R--S--S--C--G--G--R--I--D--R--I--G--A--Q--S--G--L--G--C--N--S--F--R--Y] (H-RSSCGGRIDRIGAQSGLGCNSFRY-OH; disulfide 4-19), for which the “Ki(app)” value was 7.76 nM.

For `CC[C@H](C)[C@@H]1NC(=O)[C@H](CCCNC(=N)N)NC(=O)[C@H](CC(=O)O)NC(=O)[C@H]([C@@H](C)CC)NC(=O)[C@H](CCCNC(=N)N)NC(=O)CNC(=O)[C@@H](NC(=O)[C@H](CO)NC(=O)[C@H](CO)NC(=O)[C@@H](N)CCCNC(=N)N)CSSC[C@@H](C(=O)N[C@@H](CC(N)=O)C(=O)N[C@@H](CO)C(=O)N[C@@H](Cc2ccccc2)C(=O)N[C@@H](CCCNC(=N)N)C(=O)N[C@@H](Cc2ccc(O)cc2)C(=O)O)NC(=O)CNC(=O)[C@H](CC(C)C)NC(=O)CNC(=O)[C@H](CO)NC(=O)[C@H](CCC(N)=O)NC(=O)[C@H](C)NC(=O)CNC1=O` [AP24, R--S--S--C--G--R--I--D--R--I--G--A--Q--S--G--L--G--C--N--S--F--R--Y] (H-RSSCGRIDRIGAQSGLGCNSFRY-OH; disulfide 4-18), the “Ki(app)” value came to 25.2 nM.

Regarding `CC[C@H](C)[C@H](NC(=O)[C@H](CCCNC(=N)N)NC(=O)[C@H](CC(=O)O)NC(=O)[C@@H](NC(=O)[C@H](CCCNC(=N)N)NC(=O)CNC(=O)CNC(=O)CCc1ccccc1)[C@@H](C)CC)C(=O)NCC(=O)N[C@@H](C)C(N)=O` [AP130, (desNH2 --F)--G--G--R--I--D--R--I--G--A--NH2] (Hydrocinnamoyl-GGRIDRIGA-NH2), the “Ki(app)” value was determined as 8.8 nM.

Consider `CC[C@H](C)[C@H](NC(=O)[C@H](CCCNC(=N)N)NC(=O)[C@H](CC(=O)O)NC(=O)[C@@H](NC(=O)[C@H](CCCNC(=N)N)NC(=O)CNC(=O)CNC(=O)CCc1ccccc1)[C@@H](C)CC)C(N)=O` [AP132, (desNH2 --F)--G--G--R--I--D--R--I--NH2] (Hydrocinnamoyl-GGRIDRI-NH2), for which the “Ki(app)” value turned out to be 10.15 nM.

Turning to `CC[C@H](C)[C@H](NC(=O)[C@H](CCCNC(=N)N)NC(=O)[C@H](CC(=O)O)NC(=O)[C@@H](NC(=O)[C@H](CCCNC(=N)N)NC(=O)CNC(=O)[C@@H](C)NC(=O)[C@H](Cc1ccccc1)NC(=O)[C@H](C)N)[C@@H](C)CC)C(=O)NCC(=O)N[C@@H](C)C(N)=O` [AP133, A--F--A^ --G--R--I--D--R--I--G--A--NH2] (H-AF[dA]GRIDRIGA-NH2), the “Ki(app)” value is 2.93 nM.

`CC[C@H](C)[C@H](NC(=O)[C@H](CCCNC(=N)N)NC(=O)[C@H](CC(=O)O)NC(=O)[C@@H](NC(=O)[C@H](CCCNC(=N)N)NC(=O)CNC(=O)CNC(=O)[C@@H](Cc1ccccc1)NC(=O)[C@H](C)N)[C@@H](C)CC)C(=O)NCC(=O)N[C@@H](C)C(N)=O` [AP151, A--F^ --G--G--R--I--D--R--I--G--A--NH2] (H-A[dF]GGRIDRIGA-NH2): the “Ki(app)” value amounted to 39.6 nM.

For `CC[C@H](C)[C@H](NC(=O)[C@H](CCCNC(=N)N)NC(=O)[C@H](CC(=O)O)NC(=O)[C@@H](NC(=O)[C@H](CCCNC(=N)N)NC(=O)[C@@H](C)NC(=O)CNC(=O)[C@H](Cc1ccccc1)NC(=O)[C@H](C)N)[C@@H](C)CC)C(=O)NCC(=O)N[C@@H](C)C(N)=O` [AP157, A--F--G--A^ --R--I--D--R--I--G--A--NH2] (H-AFG[dA]RIDRIGA-NH2), the “Ki(app)” value stood at 5.90 nM.

For the compound `CC[C@H](C)[C@H](NC(=O)[C@H](CCCNC(=N)N)NC(=O)[C@H](CC(=O)O)NC(=O)[C@@H](NC(=O)[C@@H](CCCNC(=N)N)NC(=O)CNC(=O)CNC(=O)[C@H](Cc1ccccc1)NC(=O)[C@H](C)N)[C@@H](C)CC)C(=O)NCC(=O)N[C@@H](C)C(N)=O` [AP301, A--F--G--G--R^ --I--D--R--I--G--A--NH2] (H-AFGG[dR]IDRIGA-NH2), the “Ki(app)” value is more than 200 nM.

On to `CC[C@@H](C)[C@@H](NC(=O)[C@H](CCCNC(=N)N)NC(=O)CNC(=O)CNC(=O)[C@H](Cc1ccccc1)NC(=O)[C@H](C)N)C(=O)N[C@@H](CC(=O)O)C(=O)N[C@@H](CCCNC(=N)N)C(=O)N[C@H](C(=O)NCC(=O)N[C@@H](C)C(N)=O)[C@@H](C)CC` [AP302, A--F--G--G--R--I^ --D--R--I--G--A--NH2] (H-AFGGR[dI]DRIGA-NH2), for which the “Ki(app)” value stood at 18.9 nM.

Take `CC[C@H](C)[C@H](NC(=O)[C@H](CCCNC(=N)N)NC(=O)[C@@H](CC(=O)O)NC(=O)[C@@H](NC(=O)[C@H](CCCNC(=N)N)NC(=O)CNC(=O)CNC(=O)[C@H](Cc1ccccc1)NC(=O)[C@H](C)N)[C@@H](C)CC)C(=O)NCC(=O)N[C@@H](C)C(N)=O` [AP303, A--F--G--G--R--I--D^ --R--I--G--A--NH2] (H-AFGGRI[dD]RIGA-NH2): the “Ki(app)” value is more than 200 nM.

As to `CC[C@H](C)[C@H](NC(=O)[C@H](CCCNC(=N)N)NC(=O)CNC(=O)CNC(=O)[C@H](Cc1ccccc1)NC(=O)[C@H](C)N)C(=O)N[C@@H](CC(=O)O)C(=O)N[C@H](CCCNC(=N)N)C(=O)N[C@H](C(=O)NCC(=O)N[C@@H](C)C(N)=O)[C@@H](C)CC` [AP304, A--F--G--G--R--I--D--R^ --I--G--A--NH2] (H-AFGGRID[dR]IGA-NH2), the “Ki(app)” value is 95.6 nM.

For `CC[C@@H](C)[C@@H](NC(=O)[C@H](CCCNC(=N)N)NC(=O)[C@H](CC(=O)O)NC(=O)[C@@H](NC(=O)[C@H](CCCNC(=N)N)NC(=O)CNC(=O)CNC(=O)[C@H](Cc1ccccc1)NC(=O)[C@H](C)N)[C@@H](C)CC)C(=O)NCC(=O)N[C@@H](C)C(N)=O` [AP305, A--F--G--G--R--I--D--R--I^ --G--A--NH2] (H-AFGGRIDR[dI]GA-NH2), the “Ki(app)” value came out at 70.62 nM.

Take `CC[C@H](C)[C@H](NC(=O)[C@H](CCCNC(=N)N)NC(=O)[C@H](CC(=O)O)NC(=O)[C@@H](NC(=O)[C@H](CCCNC(=N)N)NC(=O)CNC(=O)CNC(=O)Cc1ccc2ccccc2c1)[C@@H](C)CC)C(=O)NCC(=O)N[C@@H](C)C(N)=O` [AP306, (2--Naphthylacetyl)-G-G-R-I-D-R-I-G-A-NH2] ({Acetyl(2-naphthyl)}-GGRIDRIGA-NH2): the “Ki(app)” value was 2.03 nM.

In the case of `CC[C@H](C)[C@H](NC(=O)[C@H](CCCNC(=N)N)NC(=O)[C@H](CC(=O)O)NC(=O)[C@@H](NC(=O)[C@H](CCCNC(=N)N)NC(=O)CCCCNC(=O)COc1ccc2ccccc2c1)[C@@H](C)CC)C(N)=O` [AP307, (2-Naphthoxyacetyl)-NH(CH2)4 CO-R-I-D-R-I-NH2] ({Acetyl(2-naphthyloxy)-Ava}-RIDRI-NH2), the “Ki(app)” value stood at 39.9 nM.

As for `CC[C@H](C)[C@H](NC(=O)[C@H](CCCNC(=N)N)NC(=O)[C@H](CC(=O)O)NC(=O)[C@@H](NC(=O)[C@H](CCCNC(=N)N)NC(=O)CNC(=O)CNC(=O)CC12CC3CC(CC(C3)C1)C2)[C@@H](C)CC)C(N)=O` [AP309, (1-AA)--G--G--R--I--D--R--I--NH2] ({Acetyl(1-adamantyl)}-GGRIDRI-NH2), the “Ki(app)” value is recorded as 30.0 nM.

Consider `CC[C@H](C)[C@H](NC(=O)[C@H](CCCNC(=N)N)NC(=O)[C@H](CC(=O)O)NC(=O)[C@@H](NC(=O)[C@H](CCCNC(=N)N)NC(=O)CNC(=O)CNC(=O)OCC1c2ccccc2-c2ccccc21)[C@@H](C)CC)C(N)=O` [AP311, (FMOC)--G--G--R--I--D--R--I--NH2] (Fmoc-GGRIDRI-NH2), for which the “Ki(app)” value was determined as 10.33 nM.

Regarding `CC[C@H](C)[C@H](NC(=O)[C@H](CCCNC(=N)N)NC(=O)[C@H](CC(=O)O)NC(=O)[C@@H](NC(=O)[C@H](CCCNC(=N)N)NC(=O)CNC(=O)CNC(=O)OCC1c2ccccc2-c2ccccc21)[C@@H](C)CC)C(=O)NCC(=O)N[C@@H](C)C(N)=O` [AP312, (FMOC)--G--G--R--I--D--R--I--G--A--NH2] (Fmoc-GGRIDRIGA-NH2), the “Ki(app)” value stood at 6.27 nM.

Regarding `CC[C@H](C)[C@H](NC(=O)[C@H](CCCNC(=N)N)NC(=O)[C@H](CC(=O)O)NC(=O)[C@@H](NC(=O)[C@H](CCCNC(=N)N)NC(=O)CNC(=O)CNC(=O)CCc1c[nH]c2ccccc12)[C@@H](C)CC)C(=O)NCC(=O)N[C@@H](C)C(N)=O` [AP313, (IP)--G--G--R--I--D--R--I--G--A--NH2] ({Propanoyl(3-indol-3-yl)}-GGRIDRIGA-NH2), the “Ki(app)” value was 4.52 nM.
